# Measured values reported in patent US20250134855A1, “CO[…] AND METHODS OF USING SAME” (LYKOS THERAPEUTICS, INC., priority 2022, published 2025).
# Columns and labels:
# [1] = system: rats; assay: Daily 28-day repeated dose toxicology study, rats; type: in vivo, rat; conditions: 0, 10, 50, or 100 mg/kg/day, daily 28 days
# Experimental: Based on negative in vivo and in vitro genotoxicity studies, the carcinogenic risk of MDMA·HCl is low. No tumors were reported after daily 28-day repeated dose toxicology studies of MDMA in rats (0, 10, 50, or 100 mg/kg/day) or dogs (0, 3, 9, or 15 mg/kg/day).
# [2] = system: participants with severe PTSD; assay: MAPP1 Phase 3: Sheehan Disability Scale (SDS); type: in vivo, human
# Description: FIG. 36 and FIG. 37 show the time course of improvement in Clinician Administered PTSD Scale for DSM-5 (CAPS-5) total severity score versus placebo. Each show a treatment difference between MDMA and placebo after 3 medication sessions with psychological intervention. […] Between the second and third treatment sessions, the difference between the groups appeared to continue to increase in both studies. The primary efficacy measure was change from baseline in the CAPS-5 total severity score at 18 weeks, which was evaluated 2 months after the final dosing session. The CAPS-5 is a 30-item, clinician-rated scale used to assess severity of PTSD symptoms and diagnostic status according to DSM-5 criteria, as described herein. Scores on the CAPS 5 range from 0 to 80, with higher scores indicating more severe PTSD symptoms. In both studies, a secondary efficacy measure was change from baseline in Sheehan Disability Scale (SDS) mean item scores at 18 weeks. The modified SDS is a 3-item, clinician-rated scale measuring the degree of functional impairment in work, family, and social life. Scores on the SDS mean items range from 0 to 10, with higher scores indicating more functional impairment. In these studies, the efficacy assessments were administered by blinded independent raters 18 to 30 days after medication sessions 1 and 2.
# (§1) MAPP1 was a Phase 3 randomized, placebo-controlled, 2-arm, double-blind, multi-site study conducted to investigate the efficacy and safety of MDMA-AT in participants with severe PTSD. This study is also discussed in Mitchell et. al., Nature Medicine 2021, 27, 1025-1033. This study included 3 experimental sessions of therapy combined with either MDMA·HCl or placebo. During Experimental Session 1, participants received a split dose of 120 mg (80 mg+40 mg).
# Participants received an escalated split dose of 180 mg during Experimental Sessions 2 and 3 unless there were tolerability issues or the participant declined. The primary outcome measure, the CAPS-5, evaluated changes in PTSD symptom severity and the secondary outcome measure, the SDS, evaluated changes in functional impairment. Both measures were assessed by a blinded centralized language-specific IR pool.
# The de jure estimand of treatment efficacy was used to determine the effect of MDMA-AT on SDS total score.
# [3] = system: participants with severe PTSD; assay: MAPP1 Phase 3: safety, adverse events; type: in vivo, human
# Experimental: as §1
# There were 2 serious TEAEs in the placebo with therapy group (1 participant with 2 events of suicide attempt [1 moderate and 1 severe] and 1 participant with 1 event of suicidal ideation [severe], Listing 14.3.2.2.3). Adverse events of special interest included a subset of AEs involving cardiac function, suicidality, and MDMA abuse. There were 3 (6.5%) participants in the MDMA-AT group and 6 (13.6%) participants in the placebo with therapy group with a TEAE of special interest. The majority of AESIs were associated with suicidality (reported by […]) and 1 participant in the placebo group reported 2 AESIs that were associated with cardiac function (palpitations and irregular heart rate). […] A total of 4 participants discontinued study treatment due to a TEAE (MDMA: 1 participant [severe TEAE of depression]; placebo: 3 participants [1 participant with 2 serious adverse events (SAEs) of suicide attempt, 1 participant with a SAE of suicidal ideation, and 1 participant with 1 severe TEAE of insomnia]. The majority of participants in the MDMA-AT group (97.8%) and the placebo with therapy group (90.9%) had at least 1 temporally related TEAE (TEAEs that occurred during an experiment session or up to 2 days following); none of these events were SAEs. A listing of all TEAEs from MDMA-AT group with ≥5% incidence and twice prevalence of placebo group is provided below in Table 37. Table 37.
# [4] = single 100 mg dose of MDMA (Segura 2005); cited from earlier work
# [5] = system: human Caco-2 cells; assay: Caco-2 permeability
# [6] = system: rats; assay: 28-day repeat-dose toxicity, weekly oral, rats; conditions: any dose
# [7] = MAPP1, mITT, Baseline (Visit 3)
# [8] = MAPP1, mITT, Baseline to Visit 19
# [9] = MAPP1, mITT, Visit 19 (Primary Endpoint)
# [10] = end of treatment, 42 patients (study not given)
smiles,measurement,setting,value
"CNC(C)Cc1ccc2c(c1)OCO2 (stereo not shown) [MDMA, 3,4-methylenedioxymethamphetamine]",tumors,[1],No tumors
same,"SDS Total Score CFB, LSMean","[2]; MAPP1, mITT, MMRM, Visit 19",−3.15
same,"SDS Total Score CFB, LSMean for Treatment Difference","[2]; MAPP1, mITT, MMRM, vs placebo with therapy, Visit 19",−1.36
same,"SDS Total Score, Mean",[2]; [7],6.8
same,"SDS Total Score, Median",[2]; [7],6.8
same,"SDS Total Score CFB, Mean",[2]; [8],−3.1
same,"SDS Total Score CFB, Median",[2]; [8],−2.5
same,"SDS Total Score, Mean","[2]; MAPP1, mITT, Visit 8",5.0
same,"SDS Total Score, Median","[2]; MAPP1, mITT, Visit 8",5.0
same,"SDS Total Score, Mean","[2]; MAPP1, mITT, Visit 13",4.1
same,"SDS Total Score, Median","[2]; MAPP1, mITT, Visit 13",4.7
same,"SDS Total Score, Mean",[2]; [9],3.8
same,"SDS Total Score, Median",[2]; [9],3.4
same,reduction in SDS total scores,"[2]; MAPP1, MMRM, de jure estimand",−3.15
same,SDS Remission (SDS mean item score < 3),[2]; [10],(42.9) %
same,"SDS Remission (SDS mean item score < 3), n",[2]; [10],18
same,SDS Responder (4 point or greater reduction from baseline SDS mean item score),[2]; [10],(38.1) %
same,"SDS Responder (4 point or greater reduction from baseline SDS mean item score), n",[2]; [10],16
same,AESIs of MDMA abuse,[3]; MAPP1,no AESIs of MDMA abuse
same,"TEAE Blood pressure increased, %",[3]; MAPP1,(10.9) %
same,"TEAE Bruxism, %",[3]; MAPP1,(13.0) %
same,"TEAE Chills, %",[3]; MAPP1,(6.5) %
same,"TEAE Decreased appetite, %",[3]; MAPP1,(52.2) %
same,"TEAE Dizziness postural, %",[3]; MAPP1,(13.0) %
same,"TEAE Dry mouth, %",[3]; MAPP1,(10.9) %
same,"TEAE Feeling cold, %",[3]; MAPP1,(19.6) %
same,"TEAE Feeling jittery, %",[3]; MAPP1,(10.9) %
same,"TEAE Hyperhidrosis, %",[3]; MAPP1,(21.7) %
same,"TEAE Intrusive thoughts, %",[3]; MAPP1,(8.7) %
same,"TEAE Micturition urgency, %",[3]; MAPP1,(6.5) %
same,"TEAE Muscle tightness, %",[3]; MAPP1,(60.9) %
same,"TEAE Muscle twitching, %",[3]; MAPP1,(6.5) %
same,"TEAE Musculoskeletal pain, %",[3]; MAPP1,(8.7) %
same,"TEAE Mydriasis, %",[3]; MAPP1,(15.2) %
same,"TEAE Nausea, %",[3]; MAPP1,(30.4) %
same,"TEAE Nervousness, %",[3]; MAPP1,(6.5) %
same,"TEAE Non-cardiac chest pain, %",[3]; MAPP1,(8.7) %
same,"TEAE Nystagmus, %",[3]; MAPP1,(13.0) %
same,"TEAE Pain, %",[3]; MAPP1,(8.7) %
same,"TEAE Pollakiuria, %",[3]; MAPP1,(8.7) %
same,"TEAE Pyrexia, %",[3]; MAPP1,(6.5) %
same,"TEAE Restlessness, %",[3]; MAPP1,(15.2) %
same,"TEAE Somnolence, %",[3]; MAPP1,(6.5) %
same,"TEAE Stress, %",[3]; MAPP1,(8.7) %
same,"TEAE Substance use, %",[3]; MAPP1,(6.5) %
same,"TEAE Vision blurred, %",[3]; MAPP1,(8.7) %
same,"TEAE Vomiting, %",[3]; MAPP1,(8.7) %
same,participants with a TEAE of special interest,[3]; MAPP1,6.5%
same,"At least one Serious TEAE Leading to Death, %","[3]; MAPP1, Safety Set",(0.0) %
same,"At least one Serious TEAE, %","[3]; MAPP1, Safety Set",(0.0) %
same,"At least one TEAE of Special Interest, %","[3]; MAPP1, Safety Set",(6.5) %
same,"Discontinued study treatment due to any TEAE(s), %","[3]; MAPP1, Safety Set",(2.2) %
same,"Participants with at least 1 TEAE during Experimental Sessions and 2 Days Following, %","[3]; MAPP1, Safety Set",(97.8) %
same,"Subjects with at least 1 Severe TEAE, %","[3]; MAPP1, Safety Set",(8.7) %
same,"Subjects with at least 1 TEAE, %","[3]; MAPP1, Safety Set",(100.0) %
same,heart rate and blood pressure during experimental sessions,"[3]; MAPP1, dose-dependent, no clinical intervention required",transient increases
same,participants with at least 1 temporally related TEAE,"[3]; MAPP1, during an experiment session or up to 2 days following",97.8%
same,increase of AUC0-8 hr of paroxetine (20 mg),[4],3 fold
same,increase of Cmax of paroxetine (20 mg),[4],2.5 fold
same,permeability in human Caco-2 cells,[5],highly permeable
same,neurohistopathology of the brain,[6],No morphologic changes
